In the RepoRT retention time repository (doi:10.1016/j.chroma.2019.01.023):

Legend:
Settings in all cases: stereoisomer not certain
[1] = RP, Phenomenex Kinetex C18, 150 × 2.1 mm, 1.7 µm, 30 °C, 0.3 mL/min, estimated dead time 1.1 min; A: water + 0.1% formic acid, pH 3; B: acetonitrile + 0.1% formic acid, pH 3; gradient (min/%B) 0/2 14/100 17/100 17.1/2 25/2
[2] = HILIC, Merck SeQuant ZIC-pHILIC, 150 × 2.1 mm, 5 µm, 40 °C, 0.3 mL/min, estimated dead time 1.1 min; A: acetonitrile; B: water + 2.8 mM ammonium formate, pH 9; gradient (min/%B) 0/5 1/5 10/51 13/51 13.1/5 20/5
[3] = HILIC, Waters ACQUITY UPLC BEH Amide, 150 × 2.1 mm, 1.7 µm, 40 °C, 0.5 mL/min, estimated dead time 0.66 min; A: 5% water + 95% acetonitrile; B: 70% water + 30% acetonitrile + 10 mM ammonium formate, pH 6.5; gradient (min/%B) 0/0 2/0 20/70 23/70 24/0 31/0
[4] = RP, Phenomenex Kinetex C18, 150 × 2.1 mm, 1.7 µm, 30 °C, 0.3 mL/min, estimated dead time 1.1 min; A: water + 0.1% formic acid, pH 3; B: acetonitrile + 0.1% formic acid, pH 3; gradient (min/%B) 0/2 14/100 17/100 17.1/2 25/2; remark: listed apart in the source

Row | Compound | LC retention time [1] [min] | LC retention time [2] [min] | LC retention time [3] [min] | LC retention time [4] [min]
1 | O=C(O)c1ccc2ccccc2n1 [2-QUINOLINECARBOXYLATE] | 4.39 | 5.63 | 8.23 | –
2 | O=C(O)c1ccc([O-])c(O)c1 [3,4-DIHYDROXYBENZOATE] | 3.88 | 8.04 | – | 3.77
3 | N[C@@H](Cc1cc(I)c(O)c(I)c1)C(=O)O [3,5-DIIODO-L-TYROSINE] | 4.95 | 7.41 | – | 4.8
4 | Nc1ccc(C(=O)[O-])cc1 [4-AMINOBENZOATE] | 3.83 | 4.05 | 1.11 | –
5 | COc1cc(C(O)CO)ccc1O (stereo not given) [4-HYDROXY-3-METHOXYPHENYLGLYCOL] | 3.21 | – | 1.01 | –
6 | O=C(O)c1ccc([O-])cc1 [4-HYDROXYBENZOATE] | 4.66 | – | – | 4.51
7 | Cc1cc2nc[nH]c2cc1C [5,6 DIMETHYLBENZIMIDAZOLE] | 4.83 | – | 0.92 | –
8 | CCCCC(CC)COC(=O)c1ccccc1C(=O)OCC(CC)CCCC (stereo not given) [BIS(2-ETHYLHEXYL)PHTHALATE] | 9.11 | – | – | 9.02
9 | Cn1c(=O)c2c(ncn2C)n(C)c1=O [CAFFEINE] | 4.68 | – | 1.03 | –
10 | CC(CCC(=O)O)C1CCC2C3CCC4CC(O)CCC4(C)C3CC(O)C12C (stereo not given) [DEOXYCHOLATE] | 10.8 | – | 1.01 | –
11 | CC(=O)OCC(=O)C1CCC2C3CCC4=CC(=O)CCC4(C)C3CCC12C (stereo not given) [DEOXYCORTICOSTERONE ACETATE] | 11 | – | – | –
12 | CC(C)=CCCC(C)C1CCC2C3CC=C4CC(O)CCC4(C)C3CCC12C (stereo not given) [DESMOSTEROL] | 15.4 | – | – | –
13 | CC12CCC3c4ccc(O)cc4CCC3C1CCC2O (stereo not drawn) [ESTRADIOL-17ALPHA] | 9.34 | – | – | –
14 | CCOC(=O)Cc1c[nH]c2ccccc12 [ETHYL 3-INDOLEACETATE] | 9.17 | – | – | –
15 | Cc1cc2nc3c(=O)[nH]c(=O)nc-3n(CC(O)C(O)C(O)COP(=O)(O)OP(=O)(O)OCC3OC(n4cnc5c(N)ncnc54)C(O)C3O)c2cc1C (stereo not given) [FAD] | 4.21 | 8.07 | – | –
16 | CCCCCC=CCC=CCC=CCCCCC(=O)[O-] [GAMMA-LINOLENATE] | 11.8 | – | – | 11.8
17 | CCCCCCCCCCCCCC(=O)OCC(O)CO (stereo not given) [GLYCEROL-MYRISTATE] | 13.3 | – | – | –
18 | CC(CCC(=O)NCC(=O)O)C1CCC2C3C(O)CC4CC(O)CCC4(C)C3CC(O)C12C (stereo not given) [GLYCOCHOLATE] | 8.13 | 5.5 | 6.3 | –
19 | O=C([O-])Cc1c[nH]c2ccccc12 [INDOLE-3-ACETATE] | 6.54 | – | – | –
20 | COC(=O)Cc1c[nH]c2ccccc12 [INDOLE-3-METHYL ACETATE] | 8.33 | – | – | –
21 | O=CCc1c[nH]c2ccccc12 [INDOLEACETALDEHYDE] | 4.83 | – | 1.02 | –
22 | CC(C)CC(N)C(=O)O (stereo not given) [LEUCINE] | – | 7.02 | 7.96 | 2.05
23 | NC(=O)CCCCC1CCSS1 (stereo not given) [LIPOAMIDE] | 6.87 | – | 0.88 | –
24 | O=C(O)CC(O)C(=O)O (stereo not given) [MALATE] | 2.8 | 9.39 | – | –
25 | CC(C)=CCCC(C)=CCCC(C)=CCCC(C)=CCCC(C)=CCCC(C)=CCCC(C)=CCC1=C(C)C(=O)c2ccccc2C1=O [MENAQUINONE] | 11.9 | – | – | –
26 | CSCCC(N)C(=O)O (stereo not given) [METHIONINE] | – | 7.53 | 8.53 | 1.43
27 | CC(CC(=O)O)CC(=O)O [METHYGLUTARATE] | – | 7.27 | 1.27 | 3.85

Row | Compound | LC retention time [1] [min] | LC retention time [2] [min] | LC retention time [3] [min] | LC retention time [4] [min]
28 | CC(O)(CCO)CC(=O)[O-] (stereo not given) [MEVALONATE] | – | 6.07 | 3.94 | 1.99
29 | CCCCCCCCCCCCCC(=O)O [MYRISTATE] | 11.6 | – | – | –
30 | CC(=O)NC(CC(=O)O)C(=O)O (stereo not given) [N-ACETYLASPARTATE] | – | 8.84 | 3.48 | 1.45
31 | CC(=O)NCC(=O)O [N-ACETYLGLYCINE] | – | 7.17 | 5.48 | 1.41
32 | O=C([O-])c1cccnc1 [NICOTINATE] | – | 5.76 | 3.5 | 1.41
33 | CCCCC(N)C(=O)O (stereo not given) [NORLEUCINE] | – | 7.04 | 7.75 | 2.19
34 | CCCC(N)C(=O)O (stereo not given) [NORVALINE] | – | 7.52 | 8.68 | 1.33
35 | NC(CCOC(=O)CCC(=O)O)C(=O)O (stereo not given) [O-SUCCINYL-HOMOSERINE] | – | 8.3 | 11.8 | 1.45
36 | CCCCCCCCCCCCCCCC(=O)O [PALMITATE] | 11.8 | – | – | –
37 | O=CCc1ccccc1 [PHENYLACETALDEHYDE] | 9.47 | – | – | –
38 | Nc1nc2nccnc2c(=O)[nH]1 [PTERIN] | – | 6.57 | 4.43 | 2.05
39 | c1ncc2[nH]cnc2n1 [PURINE] | – | 3.4 | 1.89 | 1.92
40 | Cc1ncc(CO)c(C=O)c1O [PYRIDOXAL] | – | 2.6 | 1.81 | 1.4
41 | O=C1CCC(C(=O)O)N1 (stereo not given) [PYROGLUTAMATE] | 1.71 | – | – | –
42 | CC(C=CC1=C(C)CCCC1(C)C)=CC=CC(C)=CC(=O)[O-] [RETINOATE] | 11.2 | – | – | 8.2
43 | CCCCCCSCC(NC(=O)CCC(N)C(=O)O)C(=O)NCC(=O)O (stereo not given) [S-HEXYL-GLUTATHIONE] | 6.27 | – | – | 6.22
44 | C[Se]CCC(N)C(=O)O (stereo not given) [SELENOMETHIONINE] | 1.76 | 6.81 | 8.56 | –
45 | O=C(O)CCCCCCC(=O)O [SUBERATE] | – | 5.2 | 4.7 | 5.34
46 | Cn1cnc2c1c(=O)[nH]c(=O)n2C [THEOBROMINE] | 3.68 | 1.93 | 1.32 | –
47 | NC(=O)C1CCCN1C(=O)C(Cc1cnc[nH]1)NC(=O)C1CCC(=O)N1 (stereo not given) [THYROTROPIN RELEASING HORMONE] | – | 6.53 | 8.34 | 2.14
48 | NCCc1c[nH]c2ccccc12 [TRYPTAMINE] | 5.12 | – | 7.11 | –
49 | O=C([O-])c1c[nH]c(=O)[nH]c1=O [URACIL 5-CARBOXYLATE] | 1.93 | – | – | 1.8
50 | O=c1cc[nH]c(=O)[nH]1 [URACIL] | – | 4.25 | 1.83 | 1.41
51 | O=c1[nH]c(=O)c2[nH]c(=O)[nH]c2[nH]1 [URATE] | – | 8.13 | 2.25 | 1.52
52 | NC(=O)NCCC(=O)O [UREIDOPROPIONATE] | – | 7.98 | 5.27 | 1.4
53 | O=C(O)C=Cc1cnc[nH]1 [UROCANATE] | – | 7.08 | 4.08 | 1.43
